Drawing on patent US20060009493A1, “Indolinone hydrazides as c-Met inhibitors” (Sugen, Inc., priority 2003, published 2006), this text covers IC50 for 22 compounds.

This assay deals with T1, GST fusion protein containing the Met kinase domain (Homo sapiens, UniProt P08581).
T1 construct: Purified GST fusion protein containing the Met kinase domain, Sugen, Inc
T1 sequence (P08581 1078-1345 limits assumed): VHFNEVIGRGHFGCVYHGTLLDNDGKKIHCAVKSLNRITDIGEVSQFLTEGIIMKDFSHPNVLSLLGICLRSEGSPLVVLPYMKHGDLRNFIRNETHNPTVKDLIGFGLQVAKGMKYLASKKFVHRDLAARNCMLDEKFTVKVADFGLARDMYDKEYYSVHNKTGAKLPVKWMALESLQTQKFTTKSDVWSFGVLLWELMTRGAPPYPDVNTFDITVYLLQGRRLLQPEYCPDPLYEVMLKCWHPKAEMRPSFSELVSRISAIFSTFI
Put plainly: MET Transphosphorylation Assay (ELISA, poly(Glu,Tyr) 4:1 substrate). In kind it is biochemical. To be noted: met transphosphorylation of poly(glutamic acid:tyrosine 4:1) substrate; two values in a cell separated by '/'. The method, then: MET Transphosphorylation Assay
This assay is used to measure phosphotyrosine levels on a poly(glutamic acid:tyrosine (4:1)) substrate as a means for identifying agonists/antagonists of met transphosphorylation of the substrate.
• 1. […] PBS, Gibco Catalog # 450-1300EB • 4. 50 mM HEPES • 5. […] Purified GST fusion protein containing the Met kinase domain, Sugen, Inc. • 7. TBST Buffer. • 8. 10% aqueous (MilliQue H2O) DMSO. • 9. […] 2× Kinase Dilution Buffer: for 100 ml, mix 10 mL 1M HEPES at pH 7.5 with 0.4 mL 5% BSA/PBS, 0.2 mL 0.1 M sodium orthovanadate and 1 mL 5M sodium chloride in 88.4 mL dH2O. • 11. 4×ATP Reaction Mixture: for 10 mL, mix 0.4 mL 1 M manganese chloride and 0.02 mL 0.1 M ATP in […] dH2O. • 12. 4× Negative Controls Mixture: for 10 mL, mix 0.4 mL 1 M manganese chloride in 9.6 mL dH2O.
13. […] 500 mM EDTA. • 15. Antibody Dilution Buffer: for 100 mL, mix 10 mL 5% BSA/PBS, 0.5 mL 5% Carnation Instant Milk® in PBS and 0.1 mL 0.1 M sodium orthovanadate in 88.4 mL TBST. • 16. Rabbit polyclonal antophosphotyrosine antibody, Sugen, Inc. • 17. Goat anti-rabbit horseradish peroxidase conjugated antibody, Biosource, Inc. • 18. ABTS Solution: for 1 L, mix 19.21 g citric acid, 35.49 g Na2HPO4 and 500 mg ABTS with sufficient dH2O to make 1 L. • 19. ABTS/H2O2: mix 15 mL ABST solution with 2 μL H2O2 five minutes before use. • 20. 0.2 M HCl Procedure: • 1. Coat ELISA plates with 2 μg Poly(Glu-Tyr) in 100 μL PBS, store overnight at 4° C. • 2. Block plate with 150 μL of 5% BSA/PBS for 60 min. • 3. Wash plate twice with PBS, once with 50 mM Hepes buffer pH 7.4. • 4. Add 50 μl of the diluted kinase to all wells. (Purified kinase is diluted with Kinase Dilution Buffer. Final concentration should be 10 ng/well.) • 5. Add 25 μL of the test compound (in 4% DMSO) or DMSO alone (4% in dH2O) for controls to plate. • 6. Incubate the kinase/compound mixture for 15 minutes. • 7. Add 25 μL of 40 mM MnCl2 to the negative control wells. • 8. Add 25 μL ATP/MnCl2 mixture to the all other wells (except the negative controls). Incubate for 5 min. • 9. Add 25 μL 500 mM EDTA to stop reaction. • 10. Wash plate 3× with TBST. • 11. Add 100 μL rabbit polyclonal anti-Ptyr diluted 1:10,000 in Antibody Dilution Buffer to each well. Incubate, with shaking, at room temperature for one hour. • 12. Wash plate 3× with TBST. • 13. […] Add 100 μL per well and incubate at room temperature, with shaking, for one hour. • 14. Wash plate 1× with PBS. • 15. Add 100 μl of ABTS/H2O2 solution to each well. • 16. If necessary, stop the development reaction with the addition of […] of 0.2M HCl per well. • 17.
As usually defined, the IC50 is the concentration that inhibits the measured activity by half. A low value points to inhibition by little substance. `CC(C(=O)N/N=C1\C(=O)Nc2cccc(-c3cccc(F)c3)c21)c1ccc(O)cc1` (stereo not shown) [Example I-16, 2-(4-Hydroxy-phenyl)-propionic acid [(3Z)-4-(3-fluoro-phenyl)-2-oxo-1,2-dihydro-indol-3-ylidene]-hydrazide]: the half-inhibitory concentration (IC50) was 140 nM. In the case of `O=C(Cc1ccc(O)cc1)N/N=C1\C(=O)Nc2ccc(OC(F)(F)F)cc21` [Example I-17, (4-Hydroxy-phenyl)-acetic acid [(3Z)-2-oxo-5-trifluoromethoxy-1,2-dihydro-indol-3-ylidene]-hydrazide] it was 58 nM. As for `O=C(Cc1ccc(O)cc1)N/N=C1\C(=O)Nc2cccc(C3CCNCC3)c21` [Example I-18, (4-Hydroxy-phenyl)-acetic acid [(3Z)-2-oxo-4-piperidin-4-yl-1,2-dihydro-indol-3-ylidene]-hydrazide], the figure is over 20000 nM. In the case of `CSc1ccc(CC(=O)N/N=C2\C(=O)Nc3ccccc32)cc1` [Example I-19, (4-Methylsulfanyl-phenyl)-acetic acid [(3Z]-2-oxo-1,2-dihydro-indol-3-ylidene]-hydrazide] it was over 20000 nM; in that of `O=C(Cc1ccc(F)cc1)N/N=C1\C(=O)Nc2ccc(C(=O)N3CCC(NC4CC4)CC3)c(Cl)c21` [Example I-20, (4-Fluoro-phenyl)-acetic acid [(3Z)-4-chloro-5-(4-cyclopropylamino-piperidine-1-carbonyl)-2-oxo-1,2-dihydro-indol-3-ylidene]-hydrazide], 430 nM; in that of `CS(=O)(=O)c1ccc(CC(=O)N/N=C2\C(=O)Nc3ccccc32)cc1` [Example I-21, (4-Methanesulfonyl-phenyl)-acetic acid [(3Z)-2-oxo-1,2-dihydro-indol-3-ylidene]-hydrazide], over 20000 nM. Turning to `O=C(Cc1ccc2c(c1)OCO2)N/N=C1\C(=O)Nc2ccc(Br)cc21` [Example I-22, Benzo[1,3]dioxol-5-yl-acetic acid [(3Z)-5-bromo-2-oxo-1,2-dihydro-indol-3-ylidene]-hydrazide], the half-maximal inhibitory concentration (IC50) came to 250 nM. `O=C(Cc1ccc2c(c1)OCO2)N/N=C1\C(=O)Nc2ccccc21` [Example I-23, Benzo[1,3]dioxol-5-yl-acetic acid [(3Z)-2-oxo-1,2-dihydro-indol-3-ylidene]-hydrazide]: the 50% inhibitory concentration (IC50) was 150 nM. Compound `O=C(Cc1ccc2c(c1)OCO2)N/N=C1\C(=O)Nc2c(Cl)ccc(Cl)c21` [Example I-24, Benzo[1,3]dioxol-5-yl-acetic acid [(3Z)-4,7-dichloro-2-oxo-1,2-dihydro-indol-3-ylidene]-hydrazide] displayed an IC50 of 110 nM.

Consider `CN1CCN(S(=O)(=O)c2ccc3c(c2)/C(=N/NC(=O)Cc2ccc(O)cc2)C(=O)N3)CC1` [Example I-25, (4-Hydroxy-phenyl)-acetic acid [(3Z)-5-(4-methyl-piperazine-1-sulfonyl)-2-oxo-1,2-dihydro-indol-3-ylidene]-hydrazide], for which the IC50 is 77 nM.

Compound `O=C(Cc1ccc(O)cc1)N/N=C1\C(=O)Nc2ccc(S(=O)(=O)NCCN3CCOCC3)cc21` [Example I-26, (3Z)-3-{[2-(4-Hydroxy-phenyl)-acetyl]-hydrazono}-2-oxo-2,3-dihydro-1H-indole-5-sulfonic acid (2-morpholin-4-yl-ethyl)-amide] gave a half-inhibitory concentration (IC50) of 78 nM. In the case of `CC(C(=O)N/N=C1\C(=O)Nc2ccc(S(=O)(=O)NCCN3CCOCC3)cc21)c1ccc(O)cc1` (stereo not shown) [Example I-27, (3Z)-3-{[2-(4-Hydroxy-phenyl)-propionyl]-hydrazono}-2-oxo-2,3-dihydro-1H-indole-5-sulfonic acid (2-morpholin-4-yl-ethyl)-amide] it was 390 nM. As for `O=C(Cc1ccc(O)cc1)N/N=C1\C(=O)Nc2ccc(C(=O)N3CCC(NC4CC4)CC3)c(Cl)c21` [Example I-28, (4-Hydroxy-phenyl)-acetic acid [(3Z)-4-chloro-5-(4-cyclopropylamino-piperidine-1-carbonyl)-2-oxo-1,2-dihydro-indol-3-ylidene]-hydrazide], the figure is 24 nM; as for `CC(C(=O)N/N=C1\C(=O)Nc2ccc(C(=O)O)c(Cl)c21)c1ccc(F)cc1` (stereo not shown) [Example I-29, (3Z)-4-Chloro-3-{[2-(4-fluoro-phenyl)-propionyl]-hydrazono}-2-oxo-2,3-dihydro-1H-indole-5-carboxylic acid], 230 nM. The compound `CC(C(=O)N/N=C1\C(=O)Nc2ccc(C(=O)N3CCC(NC4CC4)CC3)c(Cl)c21)c1ccc(F)cc1` (stereo not shown) [Example I-30, 2-(4-Fluoro-phenyl)-propionic acid [(3Z)-4-chloro-5-(4-cyclopropylamino-piperidine-1-carbonyl)-2-oxo-1,2-dihydro-indol-3-ylidene]-hydrazide] showed an IC50 of 130 nM. The compound `O=C(Cc1ccc2c(c1)OCO2)N/N=C1\C(=O)Nc2ccc(S(=O)(=O)NCCN3CCOCC3)cc21` [Example I-31, (3Z)-3-[(2-Benzo[1,3]dioxol-5-yl-acetyl)-hydrazono]-2-oxo-2,3-dihydro-1H-indole-5-sulfonic acid (2-morpholin-4-yl-ethyl)-amide] displayed an IC50 of 320 nM. On to `O=C1Nc2ccccc2/C1=N/NC(=O)C(F)(F)c1ccc(F)cc1` [Example I-32, Difluoro-(4-fluoro-phenyl)-acetic acid [(3Z)-2-oxo-1,2-dihydro-indol-3-ylidene]-hydrazide], for which the IC50 was over 20000 nM. `CC(C(=O)N/N=C1\C(=O)Nc2ccc(C(=O)N3CCC(NC4CC4)CC3)c(Cl)c21)c1ccc(O)cc1` (stereo not shown) [Example I-33, 2-(4-Hydroxy-phenyl)-propionic acid [(3Z)-4-chloro-5-(4-cyclopropylamino-piperidine-1-carbonyl)-2-oxo-1,2-dihydro-indol-3-ylidene]-hydrazide] registered an IC50 of 86 nM.

`Cn1cc(CC(=O)N/N=C2\C(=O)Nc3ccc(C(=O)O)c(Cl)c32)ccc1=O` [Example I-34, (3Z)-4-Chloro-3-{[2-(1-methyl-6-oxo-1,6-dihydro-pyridin-3-yl)-acetyl]-hydrazono}-2-oxo-2,3-dihydro-1H-indole-5-carboxylic acid] yielded a concentration for half-maximal inhibition (IC50) of 2080 nM. As for `Cn1cc(CC(=O)N/N=C2\C(=O)Nc3ccc(C(=O)N4CCC(NC5CC5)CC4)c(Cl)c32)ccc1=O` [Example I-35, (1-Methyl-6-oxo-1,6-dihydro-pyridin-3-yl)-acetic acid [(3Z)-4-chloro-5-(4-cyclopropylamino-piperidine-1-carbonyl)-2-oxo-1,2-dihydro-indol-3-ylidene]-hydrazide], the figure is 1230 nM. In the case of `Cn1cc(CC(=O)N/N=C2\C(=O)Nc3ccc(C(=O)N4CCC[C@@H]4CN4CCCC4)c(Cl)c32)ccc1=O` [Example I-36, (1-Methyl-6-oxo-1,6-dihydro-pyridin-3-yl)-acetic acid [(3Z)-4-chloro-2-oxo-5-[(2R)-2-pyrrolidin-1-ylmethyl-pyrrolidine-1-carbonyl]-1,2-dihydro-indol-3-ylidene]-hydrazide] it was 4150 nM; in that of `O=C(Cc1ccc(O)c(Cl)c1)N/N=C1\C(=O)Nc2ccc(C(=O)O)c(Cl)c21` [Example I-37, (3Z)-4-Chloro-3-{[2-(3-chloro-4-hydroxy-phenyl)-acetyl]-hydrazono}-2-oxo-2,3-dihydro-1H-indole-5-carboxylic acid], 29 nM.
